This passage reports IC50 results from publication PMC8767786 (Nature structural & molecular biology, 2021).

The target in this test is T1, TRPM5 (Danio rerio, UniProt S5UH55).
T1 sequence (S5UH55 1-1165): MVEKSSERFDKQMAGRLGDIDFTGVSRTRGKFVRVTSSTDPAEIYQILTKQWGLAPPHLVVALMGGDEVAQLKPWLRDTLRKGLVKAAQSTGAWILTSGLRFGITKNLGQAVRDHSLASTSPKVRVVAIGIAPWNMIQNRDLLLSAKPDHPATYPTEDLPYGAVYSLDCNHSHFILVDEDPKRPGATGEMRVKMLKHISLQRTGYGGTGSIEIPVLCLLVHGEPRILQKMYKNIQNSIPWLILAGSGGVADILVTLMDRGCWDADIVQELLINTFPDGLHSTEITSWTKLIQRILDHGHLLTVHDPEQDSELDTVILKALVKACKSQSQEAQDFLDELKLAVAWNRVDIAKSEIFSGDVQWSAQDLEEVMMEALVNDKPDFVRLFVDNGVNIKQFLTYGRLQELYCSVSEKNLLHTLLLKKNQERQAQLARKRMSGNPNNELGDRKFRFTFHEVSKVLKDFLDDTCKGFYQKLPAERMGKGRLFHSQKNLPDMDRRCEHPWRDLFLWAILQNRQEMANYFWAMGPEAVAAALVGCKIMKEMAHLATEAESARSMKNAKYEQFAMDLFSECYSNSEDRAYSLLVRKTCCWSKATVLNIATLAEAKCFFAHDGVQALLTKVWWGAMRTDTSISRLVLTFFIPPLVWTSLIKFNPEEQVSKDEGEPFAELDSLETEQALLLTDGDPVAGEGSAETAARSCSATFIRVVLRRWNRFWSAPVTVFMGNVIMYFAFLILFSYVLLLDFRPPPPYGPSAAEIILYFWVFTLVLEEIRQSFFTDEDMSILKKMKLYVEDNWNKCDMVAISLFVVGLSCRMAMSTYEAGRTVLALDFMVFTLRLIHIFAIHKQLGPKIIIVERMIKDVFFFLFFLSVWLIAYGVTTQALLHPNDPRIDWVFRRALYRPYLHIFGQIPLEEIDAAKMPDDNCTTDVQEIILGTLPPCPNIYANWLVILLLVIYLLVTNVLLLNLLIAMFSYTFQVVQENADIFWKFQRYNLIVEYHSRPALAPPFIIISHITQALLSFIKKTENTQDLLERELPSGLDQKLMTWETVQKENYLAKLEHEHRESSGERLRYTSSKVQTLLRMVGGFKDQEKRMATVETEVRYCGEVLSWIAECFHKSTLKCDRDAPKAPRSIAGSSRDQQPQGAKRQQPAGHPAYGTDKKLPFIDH
As to the kind of experiment: cryo-EM structure. The format is cell-based.

Take `COc1ccc(C=NNC(=O)Cc2cccc3ccccc23)cc1OC` [NDNA, N’-(3,4-dimethoxybenzylidene)-2-(naphthalen-1-yl)acetohydrazide]: the IC50 (usually the point on the concentration scale where inhibition reaches its midpoint) is approximately 2.4 nM.
